Test results taken from patent US20100041089A1, “IMPROVED METHOD FOR DETECTING CHEMICAL […]” (priority 2006, published 2010).

Test system: yeast genes (expressed mRNA)
Assay: DNA chip measurement of expressed mRNA of yeast genes after culture with a toxic chemical substance
Format: cell-based, Saccharomyces cerevisiae S288C
Conditions: for level of expressed mRNA in the presence of chemical substance / level in the absence of chemical substance: cultured two hours with the chemical substance; for The level of expressed mRNA in the presence of chemical substance/The level of expressed mRNA in the absence of chemical substance: cultured two hours with substance
Procedure, shortened: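 Yeast S288C, YPD 25° C; toxicant at log phase, 2 h, sublethal growth-inhibiting conc.; no-chemical control. Hot SDS/acetate RNA extraction, oligo-dT mRNA, Cy3/Cy5-dUTP RT. Whole-genome chip, 65° C >12 h. Readout: treated/control intensity ratio, ≥2 significant.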

Substance: Manganese ethylenebis(dithiocarbamate) [(8)]
- level of expressed mRNA in the presence of chemical substance / level in the absence of chemical substance (yeast gene YJL097W): 0.8
- The level of expressed mRNA in the presence of chemical substance/The level of expressed mRNA in the absence of chemical substance (yeast gene YJL151C): 0.8
- The level of expressed mRNA in the presence of chemical substance/The level of expressed mRNA in the absence of chemical substance (yeast gene YJL152W): 0.7
- The level of expressed mRNA in the presence of chemical substance/The level of expressed mRNA in the absence of chemical substance (yeast gene YJL161W): 1.4
- The level of expressed mRNA in the presence of chemical substance/The level of expressed mRNA in the absence of chemical substance (yeast gene YJL171C): 0.9
- The level of expressed mRNA in the presence of chemical substance/The level of expressed mRNA in the absence of chemical substance (yeast gene YJR008W): 1.1
- level of expressed mRNA in the presence of chemical substance / level in the absence of chemical substance (yeast gene YJR030C): 0.9
- The level of expressed mRNA in the presence of chemical substance/The level of expressed mRNA in the absence of chemical substance (yeast gene YJR054W): 1.6
- level of expressed mRNA in the presence of chemical substance / level in the absence of chemical substance (yeast gene YKL051W): 0.8
- The level of expressed mRNA in the presence of chemical substance/The level of expressed mRNA in the absence of chemical substance (yeast gene YKL071W): 24.7
- The level of expressed mRNA in the presence of chemical substance/The level of expressed mRNA in the absence of chemical substance (yeast gene YKL086W): 1.1
- level of expressed mRNA in the presence of chemical substance / level in the absence of chemical substance (yeast gene YKL097C): 0.4
- level of expressed mRNA in the presence of chemical substance / level in the absence of chemical substance (yeast gene YKL100C): 0.7
- The level of expressed mRNA in the presence of chemical substance/The level of expressed mRNA in the absence of chemical substance (yeast gene YKL151C): 1.0
- The level of expressed mRNA in the presence of chemical substance/The level of expressed mRNA in the absence of chemical substance (yeast gene YKL153W): 0.7
- The level of expressed mRNA in the presence of chemical substance/The level of expressed mRNA in the absence of chemical substance (yeast gene YKL195W): 1.2
- level of expressed mRNA in the presence of chemical substance / level in the absence of chemical substance (yeast gene YKR040C): 1.0
- The level of expressed mRNA in the presence of chemical substance/The level of expressed mRNA in the absence of chemical substance (yeast gene YKR091W): 1.3
- The level of expressed mRNA in the presence of chemical substance/The level of expressed mRNA in the absence of chemical substance (yeast gene YLR054C): 1.1
- The level of expressed mRNA in the presence of chemical substance/The level of expressed mRNA in the absence of chemical substance (yeast gene YLR149C): 1.1
- The level of expressed mRNA in the presence of chemical substance/The level of expressed mRNA in the absence of chemical substance (yeast gene YLR152C): 1.2
- The level of expressed mRNA in the presence of chemical substance/The level of expressed mRNA in the absence of chemical substance (yeast gene YLR194C): 1.0
- level of expressed mRNA in the presence of chemical substance / level in the absence of chemical substance (yeast gene YLR226W): 1.3
- The level of expressed mRNA in the presence of chemical substance/The level of expressed mRNA in the absence of chemical substance (yeast gene YLR324W): 1.0
- level of expressed mRNA in the presence of chemical substance / level in the absence of chemical substance (yeast gene YLR338W): 0.8
- The level of expressed mRNA in the presence of chemical substance/The level of expressed mRNA in the absence of chemical substance (yeast gene YLR350W): 1.0
- The level of expressed mRNA in the presence of chemical substance/The level of expressed mRNA in the absence of chemical substance (yeast gene YLR387C): 1.4
- level of expressed mRNA in the presence of chemical substance / level in the absence of chemical substance (yeast gene YLR392C): 1.3
- level of expressed mRNA in the presence of chemical substance / level in the absence of chemical substance (yeast gene YLR415C): 0.9
- level of expressed mRNA in the presence of chemical substance / level in the absence of chemical substance (yeast gene YLR427W): 1.1
- The level of expressed mRNA in the presence of chemical substance/The level of expressed mRNA in the absence of chemical substance (yeast gene YLR460C): 8.1
- level of expressed mRNA in the presence of chemical substance / level in the absence of chemical substance (yeast gene YML013W): 0.6
- level of expressed mRNA in the presence of chemical substance / level in the absence of chemical substance (yeast gene YML029W): 0.9
- level of expressed mRNA in the presence of chemical substance / level in the absence of chemical substance (yeast gene YML041C): 1.8
- level of expressed mRNA in the presence of chemical substance / level in the absence of chemical substance (yeast gene YML079W): 1.2
- The level of expressed mRNA in the presence of chemical substance/The level of expressed mRNA in the absence of chemical substance (yeast gene YML117W): 0.7
- The level of expressed mRNA in the presence of chemical substance/The level of expressed mRNA in the absence of chemical substance (yeast gene YMR009W): 1.4
- The level of expressed mRNA in the presence of chemical substance/The level of expressed mRNA in the absence of chemical substance (yeast gene YMR067C): 1.1
- level of expressed mRNA in the presence of chemical substance / level in the absence of chemical substance (yeast gene YMR068W): 0.8
- level of expressed mRNA in the presence of chemical substance / level in the absence of chemical substance (yeast gene YMR071C): 1.1
- The level of expressed mRNA in the presence of chemical substance/The level of expressed mRNA in the absence of chemical substance (yeast gene YMR090W): 3.9
- The level of expressed mRNA in the presence of chemical substance/The level of expressed mRNA in the absence of chemical substance (yeast gene YMR095C): 1.2
- The level of expressed mRNA in the presence of chemical substance/The level of expressed mRNA in the absence of chemical substance (yeast gene YMR097C): 1.5
- The level of expressed mRNA in the presence of chemical substance/The level of expressed mRNA in the absence of chemical substance (yeast gene YMR102C): 1.0
- The level of expressed mRNA in the presence of chemical substance/The level of expressed mRNA in the absence of chemical substance (yeast gene YMR107W): 1.3
- level of expressed mRNA in the presence of chemical substance / level in the absence of chemical substance (yeast gene YMR160W): 0.9
- The level of expressed mRNA in the presence of chemical substance/The level of expressed mRNA in the absence of chemical substance (yeast gene YMR180C): 1.8
- The level of expressed mRNA in the presence of chemical substance/The level of expressed mRNA in the absence of chemical substance (yeast gene YMR184W): 1.9
- The level of expressed mRNA in the presence of chemical substance/The level of expressed mRNA in the absence of chemical substance (yeast gene YMR191W): 1.1
- The level of expressed mRNA in the presence of chemical substance/The level of expressed mRNA in the absence of chemical substance (yeast gene YMR295C): 1.0
- The level of expressed mRNA in the presence of chemical substance/The level of expressed mRNA in the absence of chemical substance (yeast gene YMR316W): 1.6
- level of expressed mRNA in the presence of chemical substance / level in the absence of chemical substance (yeast gene YNL026W): 1.0
